Laboratory results as given in patent publication US20240383908A1, “SYNTHESIS AND APPLICATION OF PHOSPHATASE DEGRADER” (HINOVA PHARMACEUTICALS INC., priority 2021, published 2024).
Counter-ions that a name gives are not always drawn.

Assays:
SHP2 protein [1] = target: T1, SHP2 protein (Homo sapiens, UniProt Q06124); assay: Degradation activity on SHP2 protein in NCI-H358 cells (Western blot, DC50); format: cell-based; design: endogenous in cells; settings: read-out: Degradation activity for differenct cell lines NCI-H358 (DC50)
T1 sequence (Q06124 1-593): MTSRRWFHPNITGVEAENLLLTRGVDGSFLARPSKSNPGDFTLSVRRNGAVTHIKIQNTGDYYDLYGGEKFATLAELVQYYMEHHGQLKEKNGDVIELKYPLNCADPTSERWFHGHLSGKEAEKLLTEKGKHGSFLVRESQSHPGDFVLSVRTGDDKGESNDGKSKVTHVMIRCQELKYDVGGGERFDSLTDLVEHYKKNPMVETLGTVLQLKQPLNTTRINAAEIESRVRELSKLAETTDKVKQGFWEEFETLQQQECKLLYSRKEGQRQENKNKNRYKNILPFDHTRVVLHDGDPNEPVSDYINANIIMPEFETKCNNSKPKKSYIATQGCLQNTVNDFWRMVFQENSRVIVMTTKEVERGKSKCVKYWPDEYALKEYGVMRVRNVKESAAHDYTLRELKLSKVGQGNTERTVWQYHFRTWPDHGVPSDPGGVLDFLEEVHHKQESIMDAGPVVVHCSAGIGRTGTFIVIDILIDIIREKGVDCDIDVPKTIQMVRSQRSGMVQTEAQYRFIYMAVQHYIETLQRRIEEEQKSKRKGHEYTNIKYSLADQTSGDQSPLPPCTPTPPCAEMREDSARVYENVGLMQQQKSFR
Experimental: (1) MV-411 cells were cultured in the cell culture medium, and then well-growing cells were selected and inoculated in a 12-well plate, with 1 mL/well and 1×10^6 cells/well. The plate was incubated overnight in a 5% CO2 cell incubator at 37° C.
(2) 10 mM storage solution of each drug was prepared using dimethylsulfoxide (DMSO). The stock solution was diluted gradually with DMSO before use, and then 1 μL of the compound solution was added to the cell culture well (to ensure that the DMSO concentration in the culture system was […]), so that the final drug concentration is 100 nM, 10 nM, 3 nM, 1 nM, 0.3 nM, and 0.1 nM. Two wells were set for each concentration. The plate was gently shaken and mixed. Additionally, negative control wells (containing an equal amount of DMSO) and positive control wells were included.
(3) After 24 hours of cultivation, the cells were lysed using RIPA cell lysate, and the proteins were extracted. The protein concentration was measured using a BCA assay kit. 5× concentrated protein buffer was loaded, heated at 100° C. for 5 min, and then the sample was stored at −20° C.
(4) For each well, 30 μg of protein was loaded to polyacrylamide gel for electrophoresis.
(5) The protein was transferred from polyacrylamide gel to PVDF membrane, and sealed at room temperature with 5% skimmed milk for 1 h, which was then incubated with the primary antibodies (Anti-SHP2 rabbit mAb and Anti-GAPDH rabbit mAb) at 4° C. overnight. The membrane was washed three times with TBST solution, 10 minutes for each time. After that, the membrane was incubated with the secondary antibodies (horseradish peroxidase labeled goat anti-rabbit IgG) at room temperature for 2 h, and then washed three times with TBST solution, 10 minutes for each time, followed by exposure.
(6) The images were analyzed with Image J grayscale, and the degradation ratio of protein bands in the test group was calculated, based on the negative control group (DMSO) (100%).
(7) Using the Dose-response-inhibition equation in the data processing software GraphPad Prism 8, the DC50 value was obtained (which represents the drug concentration corresponding to 50% degradation of the target protein).
Using similar methods and different cell lines, the degradation activity of the compound according to the present invention on SHP2 protein of different cell lines was tested under suitable culture conditions.

SHP2 protein [2] = target: T1, SHP2 protein; assay: Degradation activity on SHP2 protein in MIA Paca-2 cells (Western blot, DC50); format: cell-based; design: endogenous in cells; host or cells: MIA Paca-2 cells; settings: read-out: Degradation activity for differenct cell lines MIA Paca-2 (DC50)
In short: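 DC50 is the concentration degrading 50% of SHP2 relative to DMSO control. It was derived by fitting Western blot band densitometry (anti-SHP2, GAPDH reference) from cells exposed 24 h to 0.1–100 nM compound in 0.1% DMSO.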

Row | DC50 (SHP2 protein [1]) [nM] | DC50 (SHP2 protein [2]) [nM] | Structure (SMILES)
1 | 100 to 1000 | 100 to 1000 | CC1(N)CCN(c2cnc(Sc3cccc(NC(=O)c4ccc(N5CCC(N6CC=C(c7ccc(C(=O)NCc8ccc9c(c8)CN(C8CCC(=O)NC8=O)C9=O)nc7Cl)CC6)CC5)c(F)c4)c3)cn2)CC1 (stereo not shown) [Compound 442]
2 | < 100 | < 100 | CC1(N)CCN(c2cnc(Sc3cccc(NC(=O)CCCCCCCCN4C[C@H]5C[C@@H]4CN5c4ccc(C(=O)NCc5ccc6c(c5)CN(C5CCC(=O)NC5=O)C6=O)nn4)c3)cn2)CC1 (stereo partly shown) [Compound 238]
3 | 100 to 1000 | < 100 | CC1(N)CCN(c2cnc(Sc3cccc(NC(=O)c4ccc(N5CCC(N6CC=C(c7ccc(C(=O)NCc8ccc9c(c8)CN(C8CCC(=O)NC8=O)C9=O)nc7F)CC6)CC5)c(F)c4)c3)cn2)CC1 (stereo not shown) [Compound 467]
4 | < 100 | < 100 | CC1(N)CCN(c2cnc(Sc3cccc(NC(=O)c4ccc(N5CCC(N6CC=C(c7ccc(C(=O)NCc8ccc9c(c8)CN(C8CCC(=O)NC8=O)C9=O)nc7Cl)CC6)CC5)cc4)c3)cn2)CC1 (stereo not shown) [Compound 398]
5 | > 1000 | > 1000 | Cc1ncsc1-c1ccc([C@H](C)NC(=O)[C@@H]2C[C@@H](O)CN2C(=O)[C@@H](NC(=O)c2cnc(N3CCN(CC(=O)Nc4cccc(Sc5cnc(N6CCC(C)(N)CC6)cn5)c4)CC3)nc2)C(C)(C)C)cc1 [Compound 231]
6 | < 100 | 100 to 1000 | CC1(N)CCN(c2cnc(Sc3cccc(NC(=O)c4ccc(N5CCC(N6CC=C(c7cnc(C(=O)NCc8ccc9c(c8)CN(C8CCC(=O)NC8=O)C9=O)cn7)CC6)CC5)cc4)c3)cn2)CC1 (stereo not shown) [Compound 371]
7 | < 100 | < 100 | CC1(N)CCN(c2cnc(Sc3cccc(NC(=O)c4ccc(N5CCC(N6CC=C(c7cnc(C(=O)NCc8ccc9c(c8)CN(C8CCC(=O)NC8=O)C9=O)cc7Cl)CC6)CC5)c(F)c4)c3)cn2)CC1 (stereo not shown) [Compound 418]
8 | < 100 | < 100 | CC1CN(CCCCCCCCC(=O)Nc2cccc(Sc3cnc(N4CCC(C)(N)CC4)cn3)c2)CC=C1c1ccc(C(=O)NC(C)c2ccc3c(c2)CN(C2CCC(=O)NC2=O)C3=O)nc1 (stereo not shown) [Compound 242]
9 | < 100 | < 100 | Cc1ncsc1-c1ccc([C@H](C)NC(=O)[C@@H]2C[C@@H](O)CN2C(=O)[C@@H](NC(=O)c2cnc(N3CCN(CCCCC(=O)Nc4cccc(Sc5cnc(N6CCC(C)(N)CC6)cn5)c4)CC3)nc2)C(C)(C)C)cc1 [Compound 221]
10 | < 100 | < 100 | CC1(N)CCN(c2cnc(Sc3cccc(NC(=O)CCCCCCCCN4CCN(c5ccc(C(=O)NCc6ccc7c(c6)CN(C6CCC(=O)NC6=O)C7=O)cc5)CC4)c3)cn2)CC1 (stereo not shown) [Compound 229]
11 | < 100 | < 100 | Cc1cc(N2CCC(N3CC=C(c4cnc(C(=O)NCc5ccc6c(c5)CN(C5CCC(=O)NC5=O)C6=O)cc4C)CC3)CC2)ccc1C(=O)Nc1cccc(Sc2cnc(N3CCC(C)(N)CC3)cn2)c1 (stereo not shown) [Compound 457]
12 | < 100 | 100 to 1000 | CC1(N)CCN(c2cnc(Sc3cccc(NC(=O)c4ccc(N5CCC(N6CC=C(c7ccc(C(=O)NCc8ccc9c(c8)CN(C8CCC(=O)NC8=O)C9=O)cc7)CC6)CC5)c(F)c4)c3)cn2)CC1 (stereo not shown) [Compound 445]
13 | < 100 | < 100 | CC1(N)CCN(c2cnc(Sc3cccc(NC(=O)c4ccc(N5CCC(N6CCN(c7ccc(C(=O)NCc8ccc9c(c8)CN(C8CCC(=O)NC8=O)C9=O)nc7)CC6)CC5)cc4)c3)cn2)CC1 (stereo not shown) [Compound 395]
14 | 100 to 1000 | > 1000 | CC1(N)CCN(c2cnc(Sc3cccc(NC(=O)CCCCN4CCC(N5CCN(c6ccc(C(=O)NCc7ccc8c(c7)CN(C7CCC(=O)NC7=O)C8=O)nn6)CC5)C4)c3)cn2)CC1 (stereo not shown) [Compound 266]
15 | < 100 | < 100 | CC1(N)CCN(c2cnc(Sc3cccc(NC(=O)c4csc(N5CCC(N6CC=C(c7ccc(C(=O)NCc8ccc9c(c8)CN(C8CCC(=O)NC8=O)C9=O)nn7)CC6)CC5)n4)c3)cn2)CC1 (stereo not shown) [Compound 357]
16 | < 100 | < 100 | C[C@H]1CN(c2ccc(C(=O)NCc3ccc4c(c3)CN(C3CCC(=O)NC3=O)C4=O)nn2)CCN1CCCCCCCCC(=O)Nc1cccc(Sc2cnc(N3CCC(C)(N)CC3)cn2)c1 (stereo partly shown) [Compound 249]
17 | > 1000 | < 100 | CC1(N)CCN(c2cnc(Sc3cccc(NC(=O)c4ccc5c(c4)CC(N4CCN(c6ccc(C(=O)NCc7ccc8c(c7)CN(C7CCC(=O)NC7=O)C8=O)nn6)CC4)C5)c3)cn2)CC1 (stereo not shown) [Compound 344, […]]
18 | > 1000 | > 1000 | CC1(N)CCN(c2cnc(Sc3cccc(NC(=O)c4ccc(-c5ccc(N6CCC7(CC6)CC7C(=O)NCc6ccc7c(c6)CN(C6CCC(=O)NC6=O)C7=O)cc5)cc4)c3)cn2)CC1 (stereo not shown) [Compound 406]
19 | < 100 | < 100 | C[C@H]1CN(CCCCCCCCC(=O)Nc2cccc(Sc3cnc(N4CCC(C)(N)CC4)cn3)c2)CCN1c1ccc(C(=O)NCc2ccc3c(c2)CN(C2CCC(=O)NC2=O)C3=O)nn1 (stereo partly shown) [Compound 250]
20 | > 1000 | < 100 | CC1(N)CCN(c2cnc(Sc3cccc(NC(=O)c4ccc(-c5ccc(N6CCN(c7ccc(C(=O)NCc8ccc9c(c8)CN(C8CCC(=O)NC8=O)C9=O)nc7)CC6)cc5)cc4)c3)cn2)CC1 (stereo not shown) [Compound 343, 5-(4-(4′-((3-(([…])thio)phenyl)carbamoyl)-[1,1′-diphenyl]-4-yl)piperazin-1-yl)-N-((2-(2,6-dioxopiperidin-3-yl)-1-oxoisoindolin-5-yl)methyl)pyridinecarboxamide]
21 | < 100 | < 100 | CC1CC(c2ccc(C(=O)NCc3ccc4c(c3)CN(C3CCC(=O)NC3=O)C4=O)nn2)=CCN1CCCCCCCCC(=O)Nc1cccc(Sc2cnc(N3CCC(C)(N)CC3)cn2)c1 (stereo not shown) [Compound 228]
22 | < 100 | < 100 | CC1(N)C2CCC1CN(c1cnc(Sc3cccc(NC(=O)CCCCCCCCN4CCC(c5ccc(C(=O)NCc6ccc7c(c6)CN(C6CCC(=O)NC6=O)C7=O)nn5)CC4)c3)cn1)C2 (stereo not shown) [Compound 224]
23 | 100 to 1000 | > 1000 | CC1(N)CCN(c2cnc(Sc3cccc(NCc4ccc(CN5CCN(c6ccc(C(=O)NCc7ccc8c(c7)CN(C7CCC(=O)NC7=O)C8=O)nn6)CC5)cc4)c3)cn2)CC1 (stereo not shown) [Compound 247]
24 | < 100 | < 100 | Cc1cc(C(=O)NCc2ccc3c(c2)CN(C2CCC(=O)NC2=O)C3=O)ncc1C1=CCN(C2CCN(c3ccc(C(=O)Nc4cccc(Sc5cnc(N6CCC7(CC6)CO[C@@H](C)[C@H]7N)cn5)c4)cc3F)CC2)CC1 (stereo partly shown) [Compound 465]
25 | < 100 | < 100 | Cc1ncsc1-c1ccc([C@H](C)NC(=O)[C@@H]2C[C@@H](O)CN2C(=O)[C@@H](NC(=O)c2cnc(N3CCN(CCCC(=O)Nc4cccc(Sc5cnc(N6CCC7(CC6)CO[C@@H](C)[C@H]7N)cn5)c4)CC3)nc2)C(C)(C)C)cc1 [Compound 230]
26 | < 100 | < 100 | CC1(N)CCN(c2cnc(Sc3cccc(NC(=O)c4ccc(N5CCC(N6CC=C(c7ccc(C(=O)NCc8ccc9c(c8)CN(C8CCC(=O)NC8=O)C9=O)nc7)CC6)C(F)C5)nc4)c3)cn2)CC1 (stereo not shown) [Compound 409]
